The text below walks through data of PubChem BioAssay AID330 (DTP/NCI, 2004).

“And” between values parts separate entries of the source, which are not always exact repeats. Equal entries are not always repeated. Inconclusive results and toxic doses are left out.

The assay has as its system P388 leukemia ip, CD2F1 mice, survival T/C. Put plainly: NCI In Vivo Anticancer Drug Screen. Data for tumor model P388 Leukemia (intraperitoneal) in CD2F1 (CDF1) mice. Conditions: endpoint: median survival time, higher = longer survival. In a few lines:
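Mice carrying the transplanted tumor received test compound or vehicle. Survival was recorded in each group, and the value is the treated-group measurement divided by that of the vehicle-treated control group.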

Setting [1] is: dose: 50.0 mg/kg/injection, schedule: Q01DX009 (ip), vehicle: Klucel (hydroxypropylcellulose) (HPC).
[2] abbreviates: dose: 100.0 mg/kg/injection, schedule: Q01DX009 (ip), vehicle: Klucel (hydroxypropylcellulose) (HPC).
[3] abbreviates: dose: 200.0 mg/kg/injection, schedule: Q01DX009 (ip), vehicle: Klucel (hydroxypropylcellulose) (HPC).
Where [4] appears, read: dose: 50.0 mg/kg/injection, schedule: Q01DX009 (ip), vehicle: saline with Tween-80.
[5] abbreviates: dose: 100.0 mg/kg/injection, schedule: Q01DX009 (ip), vehicle: saline with Tween-80.
Setting [6] is: dose: 200.0 mg/kg/injection, schedule: Q01DX009 (ip), vehicle: saline with Tween-80.
[7] abbreviates: dose: 50.0 mg/kg/injection, schedule: Q01DX009 (ip), vehicle: saline.
Where [8] appears, read: dose: 100.0 mg/kg/injection, schedule: Q01DX009 (ip), vehicle: saline.
The mark [9] stands for this setting: dose: 200.0 mg/kg/injection, schedule: Q01DX009 (ip), vehicle: saline.
[10] abbreviates: dose: 50.0 mg/kg/injection, schedule: Q01DX005 (ip), vehicle: saline.
Setting [11] is: dose: 100.0 mg/kg/injection, schedule: Q01DX005 (ip), vehicle: saline.
Where [12] appears, read: dose: 25.0 mg/kg/injection, schedule: Q01DX009 (ip), vehicle: saline with Tween-80.
The mark [13] stands for this setting: dose: 60.0 mg/kg/injection, schedule: Q01DX005 (ip), vehicle: saline with Tween-80.

As for `CCOC(=O)c1ccc(NC(=O)NC2=NCCS2)cc1`, the T/C by setting is: (dose: 12.5 mg/kg/injection, schedule: Q01DX009 (ip), vehicle: distilled water + Tween-80) 96 % of control; (dose: 25.0 mg/kg/injection, schedule: Q01DX009 (ip), vehicle: distilled water + Tween-80) 93 % of control; (dose: 50.0 mg/kg/injection, schedule: Q01DX009 (ip), vehicle: distilled water + Tween-80) 93 % of control; (dose: 100.0 mg/kg/injection, schedule: Q01DX009 (ip), vehicle: distilled water + Tween-80) 96 % of control; (dose: 200.0 mg/kg/injection, schedule: Q01DX009 (ip), vehicle: distilled water + Tween-80) 87 % of control.

In the case of `Cln1c2c(c3ccccc31)CN(Cc1ccccc1)CC2`, the T/C under setting [1] was 105 % of control, the T/C under setting [2] is 106 % of control and the T/C under setting [3] is 97 % of control.

In the case of `CC(C)(C)N1C(=O)C(Cl)(C#N)C1c1ccccc1` (configuration not stated), the T/C is 95 % of control (dose: 60.0 mg/kg/injection, schedule: Q01DX005 (ip), vehicle: Klucel (hydroxypropylcellulose) (HPC)); 92 % of control (dose: 120.0 mg/kg/injection, schedule: Q01DX005 (ip), vehicle: Klucel (hydroxypropylcellulose) (HPC)); 92 % of control (dose: 240.0 mg/kg/injection, schedule: Q01DX005 (ip), vehicle: Klucel (hydroxypropylcellulose) (HPC)).

On to `c1ccc(CSc2nnc3c4ccccc4c4ccccc4c3n2)cc1`, for which the T/C was 100 % of control under setting [4], 102 % of control under setting [5] and 101 % of control under setting [6].

With `CC1=NCc2nn(C)nc2N1`, the T/C runs as follows: under setting [7], 100 % of control; under setting [8], 100 % of control; under setting [9], 97 % of control.

As to `CCc1c(C#N)c(S)[nH]c(=S)c1C#N`, the T/C runs as follows: (dose: 12.5 mg/kg/injection, schedule: Q01DX009 (ip), vehicle: saline) 90 % of control; (dose: 25.0 mg/kg/injection, schedule: Q01DX009 (ip), vehicle: saline) 100 % of control; under setting [7], 98 % of control and 102 % of control.

On to `O=C(Nc1ccccc1C1=NCCN1)Nc1ccccc1C1=NCCN1`, for which the T/C is 100 % of control under setting [10] and 106 % of control under setting [11].

Regarding `CCCN=C(N)c1ccc(NC(=O)c2ccc(C(=O)Nc3ccc(C(N)=NCCC)cc3)cc2)cc1`, the T/C was 154 % of control (dose: 6.25 mg/kg/injection, schedule: Q04DX003 (ip), vehicle: saline with Tween-80); 163 % of control (dose: 12.5 mg/kg/injection, schedule: Q04DX003 (ip), vehicle: saline with Tween-80); 122 % of control under setting [12]; 154 % of control (dose: 25.0 mg/kg/injection, schedule: Q04DX003 (ip), vehicle: saline with Tween-80); 90 % of control under setting [4]; 213 % of control (dose: 50.0 mg/kg/injection, schedule: Q04DX003 (ip), vehicle: saline with Tween-80). Besides, under “dose: 100.0 mg/kg/injection, schedule: Q04DX003 (ip), vehicle: saline with Tween-80”, the T/C was 100 % of control.

On to `O=[N+]([O-])c1ccc(-n2nnc3ccccc32)nc1`, for which the T/C by setting is: under setting [7], 108 % of control; under setting [8], 99 % of control; under setting [9], 99 % of control.

On to `CC1=C(C/C=C(\C)CCCC(C)CCCC(C)CCCC(C)C)C(=O)c2ccccc2C1=O` (configuration not stated), for which the T/C (dose: 12.5 mg/kg/injection, schedule: Q01DX009 (ip), vehicle: olive oil, sesame oil, peanut oil) is 102 % of control; the T/C (dose: 25.0 mg/kg/injection, schedule: Q01DX009 (ip), vehicle: olive oil, sesame oil, peanut oil) was 105 % of control; the T/C (dose: 50.0 mg/kg/injection, schedule: Q01DX001 (ip), vehicle: olive oil, sesame oil, peanut oil) is 92 % of control; the T/C (dose: 50.0 mg/kg/injection, schedule: Q01DX009 (ip), vehicle: olive oil, sesame oil, peanut oil) is 101 % of control; the T/C (dose: 100.0 mg/kg/injection, schedule: Q01DX001 (ip), vehicle: olive oil, sesame oil, peanut oil) was 99 % of control; the T/C (dose: 100.0 mg/kg/injection, schedule: Q01DX009 (ip), vehicle: olive oil, sesame oil, peanut oil) is 100 % of control. Further, the T/C is, setting by setting: (dose: 200.0 mg/kg/injection, schedule: Q01DX001 (ip), vehicle: olive oil, sesame oil, peanut oil) 99 % of control; (dose: 200.0 mg/kg/injection, schedule: Q01DX009 (ip), vehicle: olive oil, sesame oil, peanut oil) 101 % of control.

`O=c1[nH]cnc2cc3[nH]ncc3cc12`: the T/C (dose: 1.5 mg/kg/injection, schedule: Q01DX005 (ip), vehicle: saline with Tween-80) is 95 % of control; the T/C (dose: 3.0 mg/kg/injection, schedule: Q01DX005 (ip), vehicle: saline with Tween-80) is 87 % of control; the T/C (dose: 6.25 mg/kg/injection, schedule: Q01DX005 (ip), vehicle: saline with Tween-80) is 97 % of control; the T/C (dose: 100.0 mg/kg/injection, schedule: Q01DX005 (ip), vehicle: saline with Tween-80) was 89 % of control; the T/C (dose: 200.0 mg/kg/injection, schedule: Q01DX005 (ip), vehicle: saline with Tween-80) was 88 % of control.

On to `COC(=N)CCCCC(=N)OC`, for which the T/C under setting [10] was 92 % of control; the T/C under setting [11] was 97 % of control; the T/C (dose: 200.0 mg/kg/injection, schedule: Q01DX005 (ip), vehicle: saline) was 101 % of control.

For the compound `Cc1ccc(NC(=O)Oc2cc(C)c(Cl)cc2Br)cc1Cl`, the T/C was 100 % of control under setting [7], 107 % of control under setting [8] and 116 % of control under setting [9].

In the case of `CCOC(=O)N(C)N=NCCCl`, the T/C (dose: 7.5 mg/kg/injection, schedule: Q01DX005 (ip), vehicle: saline with Tween-80) is 117 % of control; the T/C (dose: 15.0 mg/kg/injection, schedule: Q01DX005 (ip), vehicle: saline with Tween-80) was 118 % of control; the T/C (dose: 30.0 mg/kg/injection, schedule: Q01DX005 (ip), vehicle: saline with Tween-80) is 175 % of control; the T/C under setting [13] was 94 % of control.

Take `COC(=O)C1CC(OC(C)=O)C2OC(C)(C)OC2C1OC(C)=O` (configuration not stated): the T/C was 100 % of control under setting [1], 99 % of control under setting [2] and 100 % of control under setting [3].

For `CC(=O)CC(C)=O.CC(=O)CC(C)=O.CCCn1ccnc1.O=N[O-].[Co]`, the T/C is, setting by setting: (dose: 50.0 mg/kg/injection, schedule: Q01DX001 (ip), vehicle: saline with Tween-80) 95 % of control; (dose: 100.0 mg/kg/injection, schedule: Q01DX001 (ip), vehicle: saline with Tween-80) 101 % of control and 93 % of control; (dose: 200.0 mg/kg/injection, schedule: Q01DX001 (ip), vehicle: saline with Tween-80) 99 % of control and 120 % of control; (dose: 400.0 mg/kg/injection, schedule: Q01DX001 (ip), vehicle: saline with Tween-80) 108 % of control.

On to `CC(NC(=O)OCc1ccccc1)C(=O)N1CCCC1C(=O)O` (configuration not stated), for which the T/C reads like this: (dose: 50.0 mg/kg/injection, schedule: Q01DX005 (ip), vehicle: Klucel (hydroxypropylcellulose) (HPC)) 91 % of control; (dose: 100.0 mg/kg/injection, schedule: Q01DX005 (ip), vehicle: Klucel (hydroxypropylcellulose) (HPC)) 90 % of control; (dose: 200.0 mg/kg/injection, schedule: Q01DX005 (ip), vehicle: Klucel (hydroxypropylcellulose) (HPC)) 98 % of control.

`ClC1c2ccccc2-c2nsnc2C1Cl` (configuration not stated): the T/C is 107 % of control under setting [12], 90 % of control under setting [4], 90 % of control under setting [5] and 100 % of control under setting [6].

With `N#CC(Cc1ccc(CC(C#N)(c2ccccc2)c2ccccn2)cc1)(c1ccccc1)c1ccccn1` (configuration not stated), the T/C was 100 % of control under setting [13]; 91 % of control (dose: 120.0 mg/kg/injection, schedule: Q01DX005 (ip), vehicle: saline with Tween-80); 86 % of control (dose: 240.0 mg/kg/injection, schedule: Q01DX005 (ip), vehicle: saline with Tween-80).

For `O=C(O)CCSC1=CC(=O)c2ccccc2C1=O`, the T/C runs as follows: (dose: 6.25 mg/kg/injection, schedule: Q04DX003 (ip), vehicle: gum acacia) 115 % of control; (dose: 12.5 mg/kg/injection, schedule: Q04DX003 (ip), vehicle: gum acacia) 110 % of control.

In the case of `Nc1ccc(-c2ccc(N)c(Cl)c2)cc1Cl`, the T/C by setting is: under setting [4], 104 % of control; under setting [5], 114 % of control; under setting [6], 112 % of control.
